Data from patent US12377069B2, “Compounds, compositions, methods of using, and methods for preparing compounds” (UNIVERSITY OF LOUISVILLE RESEARCH FOUNDATION, INC., priority 2018, dated 2025).

How the values were obtained:
[1] = system: AhR; assay: AhR nuclear translocation; assay type: cell-based, human; details: HT29, 50 μM
Procedure: Confocal Imaging: HT29 or CaCo2 or BMDM cells (50,000 cells/well) were plated on to 8-well chambered slides (154534PK; ThermoFisher Scientific) allowed them to grow overnight. The cells were induced with vehicle (0.01% DMSO) or UroA (50 μM) or UAS03 (50 μM) for desired time points and fixed with cold methonol. The AhR or Nrf2 or Cldn4 stained with respective antibodies (1:200 dilution) followed by fluorecently labelled (Alexa flour 594 for AhR and Alexa flour 488 for Nrf2 and Cldn4) secondary ab (1:500 dilution; ThermoFisher Scientific). The nucleus was stained with DAPI (Sigma Aldrich). The confocal images were captured using Nikon AIR confocal microscope using 60× magnification lense with appropriate laser channels.

[2] = system: Nrf2; assay: Nrf2 reporter (ARE-luciferase) assay; assay type: cell-based, human; details: HT29, 50 μM, 24 h
Procedure: Nrf2-Reporter assay: ARE-luciferase plasmid vector was obtained from Cayman Chemicals. HT29 cells were transfected at 50% confluency using lipofectamine 3000 reagent (ThermoFisher Scientific). Briefly, cells were seeded in 6-well plates (0.5×10^6 cells) and grown for 24 h. The transfection complex containing 1 μg of plasmid DNA and transfection reagent was added to each well in absence of FBS. After 6 hr medium containing 10% FBS was added and cells were incubated for another 16-18 hr. These cells were treated with vehicle (0.01% DMSO) or UroA (50 μM) or UAS03 (50 μM) or sulforaphane (10 μM) for 24 h. After incubation with inducers, cells were lysed and firefly luciferase activities (luminiscence) were measured with Luciferase Assay System (Promega) using multiwell plate luminometer (BMG, LABTECH).

[3] = system: C57BL/6 mice; assay: In vivo Miles assay (VEGF); details: 20 mg/kg oral gavage; VEGF 2.5 ng/mouse
Procedure: Acute intoxication of alcohol can induce microvasculature leakage as well as direct exposure to endothelium leads to disruption of endothelial integrity. […] In addition, increased endothelial permeability enhances the extravasation of immune cells into liver leading to increased inflammation. To examine the effect of UroA/UAS03 on endothelial cell permeability, we utilized in vivo Evans Blue permeability assay. Briefly, C57BL/6 mice (n=4/group) were given LPS (100 μg) i.p. followed by treatment with UAS03 or UroA (20 mg/kg) after 1 h and 18 h. Evans blue (i.v.) was given to mice (24 h post LPS treatment) and 30 min later mice were euthanized and the Evans Blue from lung and liver tissues was extracted using formamide. The levels of Evans Blue was determined by OD at 620 nm. […] To evaluate direct impact of UroA or UAS03 on endothelial barrier function, we used in vivo Miles assay to test blood vessel permeability. We used vascular endothelial growth factor (VEGF) as vasodilator. In this assay, C57BL/6 mice (n=3 per group) were given vehicle or UroA or UAS03 (20 mg/kg; oral gavage). After 3 h, Evans blue (100 μL of 1% solution) was administered i.v. followed by intra-dermal administration of VEGF (2.5 ng/mouse) or PBS (control). […]

[4] = system: Caco2 cells; assay: LPS depletion of Ocln in colon epithelial cells; assay type: cell-based, human; details: 10, 25, 50 μM, 24 h
Procedure: FIG. 12: UroA/UAS03 protect from LPS or alcohol induced depletion of Ocln and protected permeability. (A) Caco 2 cells were treated with LPS for 24 h at indicated doses and Western blots performed to determine expression of Ocln. (B) Caco2 cells were treated with LPS in combination with UroA or UAS03 (10, 25, 50 μM) for 24 h and determined Ocln expression.
UroA/UAS03 upregulate TJ proteins and protect against LPS induced damage: TJ proteins such as Cldn4, ZO-1, Ocln play a role in maintaining the gut epithelial integrity and protect the gut from external insults such as LPS. We investigated UroA/UAS03 effects on TJ protein regulation in colon epithelial cells, HT-29 and Caco2 cells. […] ALD is associated with disrupted TJs, increased permeability, inflammation and endotoxemia. Ocln is a tight junction protein expressed in intestinal epithelium and plays a role in maintenance of gut barrier function. We examined whether UroA/UAS03 can protect LPS (endotoxin) depletion of Ocln in colon epithelial cells. […] For this purpose, we have utilized Caco-2 monolayer cells on transwell membranes and performed transepithelial electrical resistance (TEER) and FITC-dextran permeability assays.

[5] = system: colon cancer cell line (SW480); details: human

| Compound | nuclear translocation of AhR [1] | ARE-luciferase luminescence [2] | endothelial barrier leakage induced by VEGF [3] | LPS depletion of Ocln [4] | cell viability in combination with 5FU [5] [%] |
| --- | --- | --- | --- | --- | --- |
| Oc1ccc2c(c1)COc1cc(O)ccc1-2 [UAS03, 6H-benzo[c]chromene-3,8-diol] | induced the nuclear translocation | enhanced luminescence | protected from endothelial barrier leakage | protected from depletion of Ocln | – |
| O=c1oc2cc(O)ccc2c2ccc(O)cc12 [UroA, 3,8-dihydroxy-6H-dibenzo[b,d]pyran-6-one] | induced the nuclear translocation | enhanced luminescence | protected from endothelial barrier leakage | protected from depletion of Ocln | 69 |
